The values below come from patent publication US7232929B2, “Amide derivatives of 2,2,3,3-tetramethylcyclopropane carboxylic acid” (Yissum Research Development Company of the Hebrew …, priority 2003, dated 2007).

Like-named read-outs stand apart in the source and are kept apart here. Bounds are passed on as bounds.

Series [1] relates to animal models of epilepsy. The following applies: cited from earlier work.
The next series deals with mouse model. To be noted: cited from earlier work.
Series [2] concerns electrically induced convulsions (MES) in rats. The following applies: literature comparison; cited from earlier work.
Series [3] deals with rats. In words: neurotoxicity, gait and stance test, rats, po. The following applies: for protective index or safety of margin TD50/ED50: TD50 / MES ED50.
Experimental: (§2) Neurotoxicity of the claimed agents was assessed in mice (ip. administration) in the rotorod ataxia test and in rats (po. administration) in the gait and stance test which assesses minimal neurotoxicity. The term qauntitating the neurotoxicity is the median neurological toxic dose (TD50).
The protective index (PI) is defined as the ratio of TD50 and ED50 (PI=TD50/ED50). The PI is used to show a useful separation between neurotoxicity and antiepileptic activity. The larger the PI, the better the separation between neurotoxicity and efficacious doses.
Series [4] has as its system electrically induced convulsions (MES) in mice. The following applies: literature comparison; cited from earlier work.
The subject of series [5] is rats. The following applies: comparison values; cited from earlier work.
Series [6] deals with chemically induced convulsions (scMet) in rats. To be noted: literature comparison, inactive at 250 mg/kg; cited from earlier work.
Series [7] concerns electrically induced convulsions (MES) in rats. In words: maximal electroshock seizure test (MES), rats, oral. To be noted: for ED50: Rattus norvegicus, oral administration, read-out: ED50 (median effective dose) in the MES model; for N/F (fraction of rats responded): MES. Type of series: in vivo, rat. An excerpt: (§1) The first model, the maximal electroshock seizure test (MES), is used to show efficacy for antiepileptic agents against partial and generalized seizure type epilepsy, the common epilepsy among therapy resistant epileptic patients. The second model, the subcutaneous metrazole test (scMet) measures seizure threshold and is a standard screening procedure to show efficacy for agents against seizure threshold and absence seizures.
A general note: Protection in the maximal electroshock model is a classic sign of anticonvulsant action.

The subject of series [8] is chemically induced convulsions (scMet) in rats. Description: subcutaneous metrazole test (scMet), rats, oral. Format: in vivo, rat. To be noted: for ED50: Rattus norvegicus, po, read-out: ED50 in the scMet model; for N/F (fraction of rats responded): scMET.
Source text: as §1

Series [9] has as its system electrically induced convulsions (MES) in mice. In words: maximal electroshock seizure test (MES), mice, ip. Type of series: in vivo. To be noted: Mus musculus, ip administration, read-out: ED50 in the MES model.
Source text: as §1

A short description of series [10]: neurotoxicity, rotorod ataxia test, mice, ip. To be noted: mouse, in vivo.
Experimental: as §2
The test system of series [11] is chemically induced convulsions (scMet) in mice. Description: subcutaneous metrazole test (scMet), mice, ip. Type of series: in vivo. To be noted: Mus musculus, read-out: ED50 in the scMet model.
Source text: as §1

The subject of series [12] is tactile allodynia in SNL rats. In words: rat spinal nerve ligation (SNL) model for neuropathic pain, von Frey filaments. Type of series: in vivo. On the procedure:
Experiments were performed on male Sprague-Dawley rats (Harlan laboratories, Jerusalem, Israel) weighing 175–200 g. The mechanical sensitivity (tactile allodynia) of the foot was quantified by the occurrence of foot withdrawal in response to normally innocuous mechanical stimuli using nine different von Frey filaments (VFF) ranging from 0.6 to 26 g. The rats were placed on a metal mesh floor covered with a transparent plastic dome and a period of acclimatization was allowed prior to testing. VFF were applied from underneath the mesh floor to the plantar surface of the foot. Each trial consisted of repeated applications of each of the VFFs in an ascending order for 5 times, each for a period of 1 s. If the rat withdrew the foot at least 3 times out of 5 at a specific VFF no further ascending filaments were tested and this filament was considered as a withdrawal threshold (response). Mechanical stimulus trials with the series of ascending VFF were repeated 2 times for a given time point. The repeated measurements were averaged and taken as the paw withdrawal threshold on a given time point.
For drug testing, the effect on neuropathic pain was measured 5–6 days following operation. Rats responding to mechanical stimuli of 10 g or less (in the operated leg) were eligible for the study.
The procedure of ligation and cut of the spinal nerves for induction of neuropathic pain was performed as previously described by Sheen and Chung (Sheen, K. and Chung, J. M., Signs of neuropathic pain depend on signals from injured nerve fibers in a rat model, Brain Research 610: 62–68 (1993)). Briefly, under ketamine-xylazine anaesthesia rats were placed in a prone position and the left paraspinal muscles were separated from spinous processes at the L4-S2 level. Part of the L6 transverse process was removed and the L4–L6 spinal nerves were identified. The L5–L6 spinal nerves were isolated and tightly ligated and cut, distal to the dorsal root ganglion and proximal to the formation of the sciatic nerve. Following complete […] the wound was sutured.
For all the studies, appropriate amounts of the tested compound were suspended in 0.5% methylcellulose to a volume of 4 mL/kg body weight. TMC-Urea and methylcellulose (MC, vehicle) were administered intraperitoneally (i.p) to rats at postoperative days 7, 14 and 21 in a double blind randomized crossover manner.
Rats that obtained threshold of 15 g and above, back to pre-operation baseline, were regarded free of tactile allodynia.
Median effective dose (ED50) and its 95% confidence intervals were calculated using the pharmacodynamic software package WinNonlin, version 4.0.1 (SCI Software, Lexington, Ky., U.S.A.).
Threshold data from VFF testing are presented as actual threshold (absolute) in grams and as percent of absolute responders.
For statistical analyses the nonparametric two-tailed Mann-Whitney U was used. A p value less than 0.05 was considered significant.

For `CNC(=O)C1C(C)(C)C1(C)C` [M-TMCD, N-methyl 2,2,3,3-tetramethylcyclopropane carboxamide], the “anticonvulsant potency relative to VPA” value in series [1] is given as “approximately 10 times”. For the same molecule, in the series on mouse model (mouse, in vivo), the teratogenicity entry was “not teratogenic”. The “ED50 in rat-MES” value in series [2] is recorded as 82 mg/kg. Besides, the “protective index or safety of margin TD50/ED50” value (“protective index or safety” below) in the series with rats [3] was found to be 2. In series [4], the “ED50 in mice-MES” value is reported as 99 mg/kg.

On to `CC1(C)C(C(=O)NCC(N)=O)C1(C)C` [TMC glycinamide, N-2,2,3,3-tetramethylcyclopropyl carbonyl-glycinamide], for which the “TD50 (median neurological toxic dose)” value in the series on rats [5] was “above 500 mg/kg”. Further, the “ED50 in rat-MES” value in series [2] is 82 mg/kg. For the same molecule, in [6], the “ED50 in the scMet model” value is on record as above 250 mg/kg. The “protective index or safety” value in the series with rats [3] is above 6.1. Also, the “ED50 in mice-MES” value in series [4] was 173 mg/kg.

Take `CN(C)C(=O)NC(=O)C1C(C)(C)C1(C)C` [II, 1,1-N,N-dimethyl-2,2,3,3-tetramethylcyclopropanecarbonyl urea]: the neurotoxicity result with rats [3] (oral, doses up to 500 mg/kg) is “no neurotoxicity”. The ED50 in [7] stood at 87 mg/kg.

Turning to `CONC(=O)C1C(C)(C)C1(C)C` [Compound V, N-methoxy-2,2,3,3-tetramethylcyclopropane carboxamide], the ED50 in [8] was 35 mg/kg; in series [9], 115 mg/kg; in series [11], 74 mg/kg. For the same molecule, the TD50 in series [10] was found to be 166 mg/kg.

Turning to `CC1(C)C(C(=O)NC(N)=O)C1(C)C` [Compound I, N-2,2,3,3-tetramethylcyclopropanecarbonyl urea], the “Allodynic response, Total responders” value in series [12] (20 mg/kg ip) was 0/9; in series [12] (60 mg/kg ip), 0/9; in series [12] (120 mg/kg ip) it was 3/9; in series [12] (180 mg/kg ip), 3/7; in series [12] (240 mg/kg ip), 9/10. For the same molecule, the “Allodynic response (number of rats responded/total number of rats)” value is on record as 0/9 in [12] (20 mg/kg ip, 30 min); 0/9 in [12] (20 mg/kg ip, 60 min); 0/9 in [12] (20 mg/kg ip, 120 min); 0/9 in [12] (20 mg/kg ip, 180 min); 0/9 in [12] (20 mg/kg ip, 240 min); 0/9 in series [12] (60 mg/kg ip, 30 min). For the same molecule, the “Allodynic response (number of rats responded/total number of rats)” value in [12] (60 mg/kg ip, 60 min) is 0/9; in [12] (60 mg/kg ip, 120 min) it was 0/9; in series [12] (60 mg/kg ip, 180 min), 0/9; in series [12] (60 mg/kg ip, 240 min), 0/9; in series [12] (120 mg/kg ip, 30 min), 0/9; in series [12] (120 mg/kg ip, 60 min), 1/9. For the same molecule, the “Allodynic response (number of rats responded/total number of rats)” value in series [12] (120 mg/kg ip, 120 min) was 3/9; in [12] (120 mg/kg ip, 180 min) it was 3/9; in series [12] (120 mg/kg ip, 240 min), 3/9; in [12] (180 mg/kg ip, 30 min) it was 0/7; in series [12] (180 mg/kg ip, 60 min) it was 1/7; in series [12] (180 mg/kg ip, 120 min) it was 3/7. For the same molecule, the “Allodynic response (number of rats responded/total number of rats)” value is listed as 3/7 in [12] (180 mg/kg ip, 180 min); 3/7 in [12] (180 mg/kg ip, 240 min); 0/10 in series [12] (240 mg/kg ip, 30 min); 2/10 in series [12] (240 mg/kg ip, 60 min); 8/10 in [12] (240 mg/kg ip, 120 min); 8/10 in series [12] (240 mg/kg ip, 180 min). The “Allodynic response (number of rats responded/total number of rats)” value in series [12] (240 mg/kg ip, 240 min) was 8/10. The 50% effective dose (ED50) amounted to 171 mg/kg in series [12] (Rattus norvegicus, ip, 2 h, i.p., at 120 min post-dose, read-out: ED50 (antiallodynic, rats free of tactile allodynia)); 91.8 mg/kg in series [8]; 29.4 mg/kg in series [7]; 90 mg/kg in series [9]; 125 mg/kg in series [11]. Besides, the “effect on tactile allodynia” value in [12] (i.p., significant reduction at 120 to 240 min at 120-240 mg/kg) was “decreased tactile allodynia in a dose-dependent manner”. For the same molecule, the “N/F (fraction of rats responded)” value is on record as 1/8 in series [8] (dose 25 mg/kg); 3/8 in [8] (dose 50 mg/kg); 3/8 in series [8] (dose 100 mg/kg); 6/8 in series [8] (dose 200 mg/kg); 8/8 in [8] (dose 400 mg/kg); 0/8 in series [7] (dose 10 mg/kg). In addition, the “N/F (fraction of rats responded)” value in [7] (dose 20 mg/kg) is recorded as 4/8; in series [7] (dose 40 mg/kg), 5/8; in series [7] (dose 80 mg/kg), 7/8. Besides, in the series on rats [3], the “protective index or safety” value worked out at 18.5. Besides, the “TD50 (median neurological toxic dose)” value in the series on rats [3] (oral administration) came out at 538 mg/kg.

With `CC1(C)C(C(=O)Nc2nnc(S(N)(=O)=O)s2)C1(C)C` [Compound VI, 5-(2,2,3,3-tetramethylcyclopropanecarbonylamido)-1,3,4-thiadiazole-2-sulfonamide], the 50% effective dose (ED50) in [9] worked out at 16 mg/kg.

In the case of `CC1(C)C(C(N)=O)C1(C)C` [tetramethylcyclopropane carboxamide], the teratogenicity entry with mouse model (mouse model) was “not teratogenic”.

Usually ED50 stands for the dose that gives a 50% effect, or the effect in half of the subjects. A word on the TD50: it is the 50% point of the dose-response relation for the toxic effect studied. Read a high TD50 as harm only at a large dose.
